# Counter-ions that a name gives are not always drawn. Like-named read-outs stand apart in the source and are kept apart here.
# Key:
# H37RvMA = experiment: Tuberculosis Alamar Blue/Resazurin assay (MIC); format: cell-based; details: Mycobacterium tuberculosis, H37RV, read-out: WT H37Rv MTB Activity
# E. coli = experiment: Gram negative MIC protocol (OD600, LB, 24 h); details: Escherichia coli
# Description: (§1) Overnight bacterial cultures were grown in LB with no added antibiotics at 37° C. with shaking. A 1:1000 dilution of these cultures into LB was exposed to concentration gradients of compounds in 96-well plates (100 μL per well assay volume). Resulting plates were incubated at 37° C. for 24 h without shaking, and OD600 was measured at the end of the incubation. MICs were determined as the lowest concentrations at which OD600 remained at baseline.
# A. baumannii = experiment: Gram negative MIC protocol (OD600, LB, 24 h); details: Acinetobacter baumannii
# Description: as §1
# [1] = read-out: MIC E. coli delta-TolC LB Media, E. coli delta-TolC, LB media, OD600
# [2] = read-out: MIC WT E. coli LB Media, WT E. coli, LB media, OD600
# [3] = read-out: MIC A. baumannii LB Media, A. baumannii, LB media, 24 h, OD600
# [4] = read-out: MIC E. coli delta-TolC LB Media, E. coli delta-TolC strain, LB media, 24 h, OD600
# [5] = read-out: MIC WT E. coli LB Media, wild-type E. coli, LB media, 24 h, OD600
# [6] = read-out: MIC A. baumannii LB Media
Compound,MIC (H37RvMA; WT H37Rv MTB) [µM],MIC (E. coli; [1]) [µM],MIC (E. coli; [2]) [µM],MIC (A. baumannii; [3]) [µM],MIC (E. coli; [4]) [µM],MIC (E. coli; [5]) [µM],MIC (H37RvMA) [µM],MIC (A. baumannii; [6]) [µM]
"CC(CC1CCCCC1)NCc1ccccc1CS(=O)(=O)NCC(O)CO (centres unmarked) [B431, 1-(2-(((1-cyclohexylpropan-2-yl)amino)methyl)phenyl)-N-(2,3-dihydroxypropyl) methanesulfonamide]",> 150,4,150,> 150,–,–,–,–
"c1cncc(-c2ccccc2CNCCC2CCCCC2)c1 [B231, 2-cyclohexyl-N-(2-(pyridin-3-yl)benzyl)ethanamine hydrochloride]",> 150,–,–,> 300,54,300,–,–
"c1ccc(CNC(CC2CCCCC2)c2ccccc2)cc1 (centres unmarked) [B169, N-benzyl-2-cyclohexyl-1-phenylethanamine hydrochloride]",> 150,74,> 300,> 300,–,–,–,–
"CC(CC1CCCCC1)N1Cc2ccccc2CC1=O (centres unmarked) [B412, 2-(1-cyclohexylpropan-2-yl)-1,4-dihydroisoquinolin-3(2H)-one]",7.4,55,> 150,> 150,–,–,–,–
c1ccc(CNCCc2ccnc3ccccc23)cc1 [B119],> 150,> 150,> 150,> 150,–,–,–,–
"NCc1ccccc1CNCCC1CCCCC1 [B254, N-(2-(aminomethyl)benzyl)-2-cyclohexylethanamine hydrochloride]",> 150,–,–,> 150,> 150,> 150,–,–
COc1ccc(CC(C)NCc2ccccc2)cn1 (centres unmarked) [B68],–,> 150,> 150,> 150,–,–,> 150,–
"c1csc(-c2ccccc2CNCCC2CCCCC2)c1 [B230, 2-cyclohexyl-N-(2-(thiophen-2-yl)benzyl)ethanamine hydrochloride]",55,–,–,96,4,96,–,–
"CC(CC1CCCCC1)NCc1cccc2ccn(CCO)c12 (centres unmarked) [B442, 2-(7-(((1-cyclohexylpropan-2-yl)amino)methyl)-1H-indol-1-yl)ethan-1-ol hydrochloride]",150,150,> 150,> 150,–,–,–,–
COc1ccc(CNC(=O)COc2ccccc2CNC(C)CC2CCCCC2)cc1 (centres unmarked) [B303],91,–,–,> 150,7,> 150,–,–
CC(CC1CCCCC1)NCc1ccccc1OCc1ccccc1F (centres unmarked) [B286],33,–,–,91,3,91,–,–
Fc1cc(CCNCc2ccccc2)c2c(c1)COCO2 [B21],> 150,> 150,> 150,> 150,–,–,–,–
COCCCOc1ccccc1CNC(C)CC1CCCCC1 (centres unmarked) [B312],> 150,–,–,> 150,7,> 150,–,–
COc1cc(CC(C)NCc2ccccc2)ncn1 (centres unmarked) [B84],–,> 150,> 150,> 150,–,–,> 150,–
"CC(CC1CCCCC1)NCc1ccccc1OCc1ccccc1Oc1ccccc1 (centres unmarked) [B463, 1-cyclohexyl-N-(2-((2-phenoxybenzyl)oxy)benzyl)propan-2-amine]",17,4,> 150,> 150,–,–,–,–
c1ccc(CNCCc2ccc3c(c2)OCO3)cc1 [B154],–,> 150,> 150,–,–,–,> 150,> 150
CC(CC1CCCCC1)NCc1ccccc1OCCC(N)=O (centres unmarked) [B285],> 150,–,–,> 150,55,91,–,–
CN1CCC(CNCc2ccccc2)c2ccccc21 (centres unmarked) [B139],> 150,> 150,> 150,> 150,–,–,–,–
c1ccc(CNC2CCC2c2ccccc2)cc1 (centres unmarked) [B176],> 150,> 300,> 300,> 300,–,–,–,–
"COC(=O)CCc1ccccc1CNC(C)CC1CCCCC1 (centres unmarked) [B400, methyl 3-(2-((1-cyclohexylpropan-2-ylamino)methyl)phenyl)propanoate hydrochloride]",> 150,55,> 150,> 150,–,–,–,–
C1=C(CC2CCCN2Cc2ccccc2)CCCC1 (centres unmarked) [B161],> 150,> 300,> 300,> 150,–,–,–,–
OCc1ccccc1CNCCC1CCCCC1 [B255],> 150,–,–,> 150,84,> 150,–,–
"CNCc1cccc(CNCCC2CCCCC2)c1 [B420, 2-cyclohexyl-N-(3-((methylamino)methyl)benzyl)ethan-1-amine]",> 150,> 150,> 150,> 150,–,–,–,–
CC(CC1CCCCC1)NCc1ccccc1OCc1ncccn1 (centres unmarked) [B310],> 150,–,–,> 150,55,> 150,–,–

Compound,MIC (H37RvMA; WT H37Rv MTB) [µM],MIC (E. coli; [1]) [µM],MIC (E. coli; [2]) [µM],MIC (A. baumannii; [3]) [µM],MIC (E. coli; [4]) [µM],MIC (E. coli; [5]) [µM],MIC (H37RvMA) [µM],MIC (A. baumannii; [6]) [µM]
"OB1OCc2ccc(CNCc3ccccc3)cc21 [B158, 6-((benzylamino)methyl)benzo[c][1,2]oxaborol-1(3H)-ol]",> 150,> 150,> 150,> 150,–,–,–,–
C1=C(CCNCc2ccncc2)CCCC1 [B3],> 150,> 150,> 150,> 150,–,–,–,–
c1ccc(CNCCN2CCCCC2)cc1 [B223],> 150,–,–,> 300,> 150,> 300,–,–
O=C(O)C(CC1CCCCC1)NCc1ccccc1 (centres unmarked) [B180],> 150,> 300,> 300,> 300,–,–,–,–
"OCC(CC1CCCCC1)NCc1ccccc1 (centres unmarked) [B168, 2-(benzylamino)-3-cyclohexylpropan-1-ol]",–,182,170,–,–,–,> 150,410
"COC(=O)c1ccccc1CNCCC1CCCCC1 [B258, methyl 2-((2-cyclohexylethylamino)methyl)benzoate hydrochloride]",> 150,–,–,> 150,100,> 150,–,–
"CC(CC1CCCCC1)NCc1ccccc1CCCO (centres unmarked) [B378, 3-(2-((1-cyclohexylpropan-2-ylamino)methyl)phenyl)propan-1-ol]",150,–,–,150,7,91,–,–
"O=C1Cc2ccccc2CN1CCC1=CCCCC1 [B411, 2-(2-(cyclohex-1-en-1-yl)ethyl)-1,4-dihydroisoquinolin-3(2H)-one]",7.4,150,> 150,> 150,–,–,–,–
"CCNS(=O)(=O)Cc1ccccc1CNC(C)CC1CCCCC1 (centres unmarked) [B446, 1-(2-(((1-cyclohexylpropan-2-yl)amino)methyl)phenyl)-N-ethylmethanesulfonamide]",> 150,7,91,> 150,–,–,–,–
"CC(CC1CCCCC1)NCc1ccccc1OCc1ccccc1 (centres unmarked) [B409, N-(2-(benzyloxy)benzyl)-1-cyclohexylpropan-2-amine]",12.2,3,55,55,–,–,–,–
CC(CC1CCCCC1)NCc1ccccc1OC(F)(F)F (centres unmarked) [B321],> 150,–,–,> 150,55,> 150,–,–
c1cc(CNCCC2CCCCC2)c2[nH]ccc2c1 [B352],91,–,–,150,91,91,–,–
CC(CNCc1ccccc1)C1CCCC1 (centres unmarked) [B5],> 150,> 150,> 150,> 150,–,–,–,–
"c1ccc(C2CC2)c(CNCCC2CCCCC2)c1 [B233, 2-cyclohexyl-N-(2-cyclopropylbenzyl)ethanamine hydrochloride]",91,–,–,170,10,300,–,–
CC(NCc1ccccc1)C(C)C1CCCCC1 (centres unmarked) [B89],91,> 150,300,> 150,–,–,–,–
COC1(CC(C)NCc2ccccc2)CCC1 (centres unmarked) [B52],> 150,> 150,> 150,> 150,–,–,–,–
"CC(CC1CCCCC1)NCc1cccc2ccn(CC(=O)O)c12 (centres unmarked) [B436, 2-(7-(((1-cyclohexylpropan-2-yl)amino)methyl)-1H-indol-1-yl)acetic acid hydrochloride]",> 150,91,> 150,> 150,–,–,–,–
"CC1=C(C)CC(CC(C)NCc2ccccc2)CC1 (centres unmarked) [B162, N-benzyl-1-(3,4-dimethylcyclohex-3-en-1-yl)propan-2-amine]",> 150,300,> 500,> 150,–,–,–,–
"CC(CC1CCCCC1)NCc1ccccc1OC1CC2CCC1CC2 (centres unmarked) [B395, N-(2-(bicyclo[2.2.2]octan-2-yloxy)benzyl)-1-cyclohexylpropan-2-amine]",20.2,–,–,33,3,> 150,–,–
c1ccc(CNCCc2ccc3cc[nH]c3c2)cc1 [B114],–,> 150,> 150,–,–,–,> 150,> 150
Cc1ccc2ncc(CCNCc3ccccc3)cc2c1 [B117],> 150,> 150,> 150,> 150,–,–,–,–
OC[C@H](Cc1ccccc1)NCc1ccccc1 [B174],> 150,> 300,> 300,> 300,–,–,–,–
Fc1ccc(CNCCC2=CCCCC2)cc1F [B144],> 150,> 150,> 150,> 150,–,–,–,–
